Measured values: paper PMC1570497, “HIV-2 Protease resistance defined in yeast cells” (Retrovirology, 2006)
Residue numbers refer to the chain shown, from its start. “And” between values parts separate entries of the source, which are not always exact repeats. Equal entries are not always repeated.

Legend:
HIV-2 K45R = tested on: HIV-2 K45R; design: method as in PMID 16464891; key: resistant (R); sensitive (S); details: cited from earlier work
HIV-2 Protease MRT-1 = HIV-2 Protease MRT-1 (Human immunodeficiency virus type 2, UniProt P04584, cells depend on it, form not given); experiment: yeast growth rescue assay, Protease from infected individual; details: for Phenotype (transformed yeast) (% cell growth) / IC50: MRT-1 Protease; for IC50: yeast
HIV-2ROD wild type = tested on: HIV-2ROD wild type; design: method as in previously published data; key: resistant (R); sensitive (S); details: ref previously published data; cited from earlier work
HIV-2ROD Protease = target: T1, HIV-2ROD Protease (Human immunodeficiency virus type 2 subtype A, UniProt P04584); format: cell-based
T1 construct: initiator Met (added ATG start codon) (N); expressed in transfected cells; host or cells: Saccharomyces cerevisiae BY4741, pRS316Gal1/10-HIV2PR (galactose-inducible)

Protease from HIV-2ROD = tested on: Protease from HIV-2ROD; design: method as in PMID 16464891, PMID 16327332; details: read-out: IC50 already reported in the literature; cited from earlier work
HIV-2 V20A, I54M = tested on: HIV-2 V20A, I54M; design: method as in PMID 16464891; key: resistant (R); sensitive (S); details: cited from earlier work
HIV-2 Protease MRT-7 = HIV-2 Protease MRT-7 (Human immunodeficiency virus type 2, UniProt P04584, cells depend on it, form not given); experiment: yeast growth rescue assay, Protease from infected individual; details: for Phenotype (transformed yeast) (% cell growth) / IC50: MRT-7 Protease; for IC50: yeast
HIV-2ROD Protease L90M = target: T2, HIV-2ROD Protease L90M (Human immunodeficiency virus type 2 subtype A, UniProt P04584, L603M); experiment: cell-based; format: cell-based; details: for IC50mutant/IC50ROD: L90M
T2 sequence (P04584 514-612 L603M): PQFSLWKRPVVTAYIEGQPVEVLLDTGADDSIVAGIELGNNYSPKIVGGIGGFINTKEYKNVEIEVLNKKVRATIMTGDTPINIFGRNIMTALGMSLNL

HIV-2 Protease MRT-8 = HIV-2 Protease MRT-8 (Human immunodeficiency virus 2, UniProt P04584, L603M, cells depend on it, form not given); experiment: yeast growth rescue assay, Protease from infected individual; details: for Phenotype (transformed yeast) (% cell growth) / IC50: MRT-8 Protease; for IC50: yeast
HIV-2 Protease MRT-25 = HIV-2 Protease MRT-25 (Human immunodeficiency virus type 2, UniProt P04584, cells depend on it, form not given); experiment: as above; details: for Phenotype (transformed yeast) (% cell growth) / IC50: MRT-25 Protease; for IC50: yeast
HIV-2 Protease MRT-20 = HIV-2 Protease MRT-20 (Human immunodeficiency virus type 2, UniProt P04584, cells depend on it, form not given); experiment: as above; format: cell-based; details: for Phenotype (transformed yeast) (% cell growth) / IC50: MRT-20 Protease; for IC50isolate/IC50ROD: MRT-20; for IC50: yeast
[1] = target: T3, HIV-2ROD Protease (wild type) (Human immunodeficiency virus type 2 subtype A, UniProt P04584); experiment: yeast growth rescue assay, HIV-2ROD Protease expressed in BY4741 yeast; format: cell-based; details: for Phenotype (transformed yeast) (% cell growth): galactose, wild type ROD Protease; for Phenotype (transformed yeast) (% cell growth) / IC50: 48 h; for IC50isolate/IC50ROD: ROD (reference); for IC50: ROD Protease
T3 construct: initiator Met (added ATG start codon) (N); expressed in transfected cells; host or cells: Saccharomyces cerevisiae BY4741, pRS316Gal1/10-HIV2PR (galactose-inducible)

HIV-2 Protease MRT-22 = HIV-2 Protease MRT-22 (Human immunodeficiency virus type 2, UniProt P04584, cells depend on it, form not given); experiment: yeast growth rescue assay, Protease from infected individual; details: for Phenotype (transformed yeast) (% cell growth) / IC50: MRT-22 Protease; for IC50isolate/IC50ROD: MRT-22; for IC50: yeast
HIV-2ROD Protease L99F = target: T4, HIV-2ROD Protease L99F (Human immunodeficiency virus type 2 subtype A, UniProt P04584, L612F); experiment: cell-based; details: for IC50mutant/IC50ROD: L99F
T4 construct: contains a Phe codon at position 99 of the HIV-2 Protease, followed by a stop codon; initiator Met (start codon of primer Fwd) (N); expressed in transfected cells; host or cells: Saccharomyces cerevisiae BY4741, pRS316GAL1/10
T4 sequence (P04584 514-612 L612F): T2 sequence (P04584 514-612 L603M) with M90L, L99F

HIV-2 Protease MRT-29 = HIV-2 Protease MRT-29 (Human immunodeficiency virus type 2, UniProt P04584, cells depend on it, form not given); experiment: yeast growth rescue assay, Protease from infected individual; details: for Phenotype (transformed yeast) (% cell growth) / IC50: MRT-29 Protease; for IC50isolate/IC50ROD: MRT-29; for IC50: yeast
HIV-2 M76V = tested on: HIV-2 M76V; design: key: resistant (R); sensitive (S); details: cited from earlier work

Chain of HIV-2 Protease MRT-22 (P04584 514-612 limits assumed, stated change not applied): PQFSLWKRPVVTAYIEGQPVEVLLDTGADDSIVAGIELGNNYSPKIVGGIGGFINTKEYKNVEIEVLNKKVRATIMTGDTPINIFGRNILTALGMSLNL
Chain of HIV-2 Protease MRT-29 (P04584 514-612 limits assumed, stated change not applied): as above
Chain of HIV-2 Protease MRT-1 (P04584 514-612 limits assumed, change not shown): as the sequence (P04584 514-612 limits assumed, stated change not applied) above
T3 sequence (P04584 514-612 limits assumed): as the sequence (P04584 514-612 limits assumed, stated change not applied) above
Chain of HIV-2 Protease MRT-7 (P04584 514-612 limits assumed, stated change not applied): as above
Chain of HIV-2 Protease MRT-20 (P04584 514-612 limits assumed, change not shown): as the sequence (P04584 514-612 limits assumed, stated change not applied) above
Chain of HIV-2 Protease MRT-25 (P04584 514-612 limits assumed, change not shown): as the sequence (P04584 514-612 limits assumed, stated change not applied) above
T1 sequence (P04584 514-612 limits assumed): as the sequence (P04584 514-612 limits assumed, stated change not applied) above

Compound	Phenotype (virus production) (HIV-2 K45R)	IC50 (HIV-2 Protease MRT-1)	Phenotype (virus production) (HIV-2ROD wild type)	IC50 (Protease from HIV-2ROD)	Phenotype (virus production) (HIV-2 V20A, I54M)	IC50 (HIV-2 Protease MRT-7)	IC50 (HIV-2ROD Protease L90M)	IC50mutant/IC50ROD (HIV-2ROD Protease L90M)	IC50 (HIV-2 Protease MRT-8)	IC50 (HIV-2 Protease MRT-25)	IC50isolate/IC50ROD (HIV-2 Protease MRT-20)	IC50 (HIV-2 Protease MRT-20)	IC50isolate/IC50ROD [1]	IC50 [1]	IC50isolate/IC50ROD (HIV-2 Protease MRT-22)	IC50 (HIV-2 Protease MRT-22)	IC50 (HIV-2ROD Protease L99F)	IC50mutant/IC50ROD (HIV-2ROD Protease L99F)	IC50isolate/IC50ROD (HIV-2 Protease MRT-29)	IC50 (HIV-2 Protease MRT-29)	also measured
Cc1cccc(C)c1OCC(=O)N[C@@H](Cc1ccccc1)[C@@H](O)C[C@H](Cc1ccccc1)NC(=O)[C@H](C(C)C)N1CCCNC1=O [LPV, Lopinavir]	R [9]	48 ± 3.2 µM	S	0.027 µM	R [9]	10.8 ± 5 µM	12.5 ± 8.1 µM	0.75	12.5 ± 1.5 µM	19.9 ± 4.6 µM	1.40	23.2 ± 4.4 µM	1.00	16.6 ± 2.5 µM	0.91	15.1 ± 4.3 µM	11.1 ± 3.1 µM	0.67	0.84	13.9 ± 5.5 µM	Phenotype (transformed yeast) (% cell growth) (HIV-2 Protease MRT-1; LPV at 150 μM): 50.0+/-3.0%; growth in galactose (HIV-2ROD Protease; 60 μM LPV): grew in galactose; Phenotype (transformed yeast) (% cell growth) (HIV-2 Protease MRT-7; LPV at 150 μM): 100.0+/-4.7%; Phenotype (transformed yeast) (% cell growth) (HIV-2 Protease MRT-8; LPV at 150 μM): 82.0+/-7.5%; Phenotype (transformed yeast) (% cell growth) (HIV-2 Protease MRT-25; LPV at 150 μM): 100.0+/-2.0%; IC50isolate/IC50ROD (HIV-2 Protease MRT-25; MRT-25): 1.20; Phenotype (transformed yeast) (% cell growth) (HIV-2 Protease MRT-20; LPV at 150 μM): 71.5+/-1.2%; Phenotype (transformed yeast) (% cell growth) ([1]; LPV at 150 μM): 91.5% and 91.5+/-1.2%; Phenotype (transformed yeast) (% cell growth) (HIV-2 Protease MRT-22; LPV at 150 μM): 98.5+/-1.0%; Phenotype (transformed yeast) (% cell growth) (HIV-2 Protease MRT-29; LPV at 150 μM): 93.0+/-2.0%
CC(C)(C)NC(=O)[C@@H]1C[C@@H]2CCCC[C@@H]2CN1C[C@@H](O)[C@H](Cc1ccccc1)NC(=O)[C@H](CC(N)=O)NC(=O)c1ccc2ccccc2n1 [SQV, Saquinavir]	R [9]	200 ± 5.1 µM	S	0.011 µM	R [9]	68.9 ± 6.2 µM	554.1 ± 3.9 µM	3.7	553.9 ± 4.2 µM	48.5 ± 4.7 µM	0.79	118 ± 6.3 µM	1.00	150 ± 7.2 µM	0.70	105 ± 7.1 µM	147 ± 5.1 µM	0.98	1.02	153 ± 3 µM	IC50isolate/IC50ROD (HIV-2 Protease MRT-1; MRT-1): 1.34; Phenotype (transformed yeast) (% cell growth) (HIV-2 Protease MRT-1; SQV at 1mM): 71.0+/-5%; growth on galactose plates (lethal phenotype) (HIV-2ROD Protease; SQV at 200 μM, 2 days at 30°C): the lethal phenotype was no longer observed; IC50isolate/IC50ROD (HIV-2 Protease MRT-7; MRT-7): 0.46; Phenotype (transformed yeast) (% cell growth) (HIV-2 Protease MRT-7; SQV at 1mM): 98.0+/-6%; Phenotype (virus production) (HIV-2 M76V): R [10]; IC50isolate/IC50ROD (HIV-2 Protease MRT-8; MRT-8): 4.2 and 4.23; Phenotype (transformed yeast) (% cell growth) (HIV-2 Protease MRT-8; SQV at 1mM, 1000 µM): 55% and 55.0+/-6.3%; Phenotype (transformed yeast) (% cell growth) (HIV-2 Protease MRT-25; SQV at 1mM): 100.0+/-9.4%; Phenotype (transformed yeast) (% cell growth) (HIV-2 Protease MRT-20; SQV at 1mM): 78.0+/-3.0%; Phenotype (transformed yeast) (% cell growth) ([1]; SQV at 1mM): 75% and 75.0+/-7.0%; Phenotype (transformed yeast) (% cell growth) (HIV-2 Protease MRT-22; SQV at 1mM): 82.0+/-7.1%; Phenotype (transformed yeast) (% cell growth) (HIV-2 Protease MRT-29; SQV at 1mM): 72.0+/-3.0%
